The values that follow come from US8476197B2, “Aminopropenoates as fungicides” (priority 2009, dated 2013).

Structures are written as SMILES. Marks after values point to notes of the source that are not given here.

For the first series the following is noted: pH 2.3.
Experimental: Measurement of logP values was performed according EEC directive 79/831 Annex V.A8 by HPLC (High Performance Liquid Chromatography) on reversed phase columns with the following methods:
^[a] measurement of LC-MS was done at pH 2.7 with 0.1% formic acid in water and with acetonitrile (contains 0.1% formic acid) as eluent with a linear gradient from 10% acetonitrile to 95% acetonitrile. ^[b] Measurement was done at pH 7.5 with 0.005 molar aqueous KH2PO4 buffer and acetonitrile as eluent. ^[c] Measurement was done at pH 2.3 with 0.1% (w/w) phosphoric acid and acetonitrile as eluent.
The term Log P denotes a log measure of how a compound divides between an organic and an aqueous phase. A high value points to a more lipophilic compound. With `CCOC(=O)C(C#N)=C(NC1CCSC1=O)c1cccnc1Cl` (racemic) [Compound 44], the “Log P” value is 2.42.
The same measure, in the same setting: with `CCOC(=O)C(C#N)=C(NC(C)c1nccs1)c1cccnc1OCC` (racemic) [Compound 148] the figure was 2.92.

The same series, now with this note: pH 2.7.
For the molecule `CCOC(=O)C(C#N)=C(NC(C)c1ccccn1)c1cc(Cl)sc1Cl` (racemic) [Compound 222], the “Log P” value was 2.41^[a].
As to `CCOC(=O)C(C#N)=C(NC(C)C1CCC1)c1c(CC)nn(C)c1Cl` (stereo not shown) [Compound 1648], the “Log P” value is 3.94^[a].
Turning to `C=CCOC(=O)C(C#N)=C(NC(C)c1nccs1)c1sccc1Br` (stereo not shown) [Compound 205], the “Log P” value is 3.31^[a].
On the same count and under the same terms, with `CCOC(=O)C(C#N)=C(NC(C)c1ccccc1F)c1cccnc1Cl` (stereo not shown) [Compound 1532] the figure was 3.48^[a]; with `CCOC(=O)C(C#N)=C(NC1CC1(C)C)c1cccnc1Cl` (stereo not shown) [Compound 1055], 3.25^[a]; with `CCOC(=O)C(C#N)=C(NCc1ccccc1SC)c1sc(C)nc1C(F)(F)F` [Compound 464], 3.87^[a].
On the same count and under the same terms, with `CCOC(=O)C(C#N)=C(NC1CC2CCC1C2)c1cccnc1Cl` (stereo not shown) [Compound 1082] the figure was 3.74^[a].
In the case of `CC(NC(=C(C#N)C(=O)N(C)C)c1cn(C)nc1C(F)F)c1ccccn1` (stereo not shown) [Compound 1295], the “Log P” value is 1.59^[a].
Same read-out and setting: with `CCOC(=O)C(C#N)=C(NC1CC1C(C)C)c1cccnc1Cl` (stereo not shown) [Compound 1635] the figure was 3.53^[a].
On to `CCOC(=O)C(C#N)=C(NC(C)C(C)C)c1conc1C` (stereo not shown) [Compound 940], for which the “Log P” value was 3.15^[a].
Same read-out and setting: with `CCOC(=O)C(C#N)=C(NC1C2CCCCC21)c1cn(C)nc1C(F)F` (stereo not shown) [Compound 1131] the figure was 3.44^[a]; with `C=CCOC(=O)C(C#N)=C(NC(C)C(C)C)c1cn(C)nc1C(F)F` (stereo not shown) [Compound 998], 3.31^[a].
In the case of `CCOC(=O)C(C#N)=C(NC(C)c1ccc(F)cc1)c1sc(C)nc1C(F)(F)F` (mixture of isomers) [Compound 450], the lipophilicity (Log P) was 3.96^[a].
On the same count and under the same terms, with `CC(NC(=C(C#N)C(=O)NC1CC1)c1cn(C)nc1C(F)F)c1ccccn1` (racemic) [Compound 1280] the figure was 1.84^[a].
The same measure, in the same setting: with `CCOC(=O)C(C#N)=C(NC(C)c1ccccc1Br)c1cccnc1Cl` (stereo not shown) [Compound 1530] the figure was 3.89^[a].
Still for that read-out and setting: with `CCOC(=O)C(C#N)=C(NCc1ccccn1)c1c(C)nn(C)c1Cl` [Compound 87] the figure was 2.02^[a]; with `CCOC(=O)C(C#N)=C(NC1CCC1)c1cc(Cl)cc(Cl)n1` [Compound 801], 3.79^[a]; with `COC(=O)C(C#N)=C(NC(C)c1ccccc1Cl)c1cccnc1Cl` (stereo not shown) [Compound 375], 3.19^[a].
As to `CCOC(=O)C(C#N)=C(NC(C)c1ccc(C)cc1)c1sc(C)nc1C(F)(F)F` (mixture of isomers) [Compound 451], the log partition coefficient (Log P) is 4.36^[a].
The same measure, in the same setting: with `CCOC(=O)C(C#N)=C(NC(C)C1CCCCC1)c1cn(C)nc1C(F)F` (stereo not shown) [Compound 872] the figure was 3.92^[a]; with `CCOC(=O)C(C#N)=C(NC(C)C1CC1)c1cc(Cl)cc(Cl)n1` (racemic) [Compound 900], 3.92^[a]; with `CCOC(=O)C(C#N)=C(NC(C)c1cc(C)ccn1)c1cccnc1Cl` (stereo not shown) [Compound 1442], 2.6^[a].
Still for that read-out and setting: with `CCOC(=O)C(C#N)=C(NC(C)c1ccccn1)c1ccnc(C)c1F` (stereo not shown) [Compound 1320] the figure was 2.5^[a].
The same measure, in the same setting: with `CCOc1ccc(C(C)NC(=C(C#N)C(=O)OC)c2cccnc2Cl)cc1` (stereo not shown) [Compound 378] the figure was 3.02^[a]; with `CCNC(=O)C(C#N)=C(NC(C)C(C)C)c1ccnc(Cl)c1Cl` (stereo not shown) [Compound 1200], 3.57^[a].

Still in this series, the particulars now being: pH 7.5.
`CCOC(=O)C(C#N)=C(NC1CCSC1=O)c1cccnc1Cl` (racemic) [Compound 44]: the “Log P” value amounted to 2.23.
Take `CCOC(=O)C(C#N)=C(NC(C)c1ncc(Br)s1)c1cccnc1Cl` (racemic) [Compound 128]: the log partition coefficient (Log P) is 3.32.
Regarding `C=CCOC(=O)C(C#N)=C(NC(C)c1nccs1)c1cccnc1Cl` (stereo not shown) [Compound 89], the “Log P” value is on record as 2.56.
On the same count and under the same terms, the same measure for `CCOC(=O)C(C#N)=C(NC(C)c1nccs1)c1cccnc1OCC` (racemic) [Compound 148]: 2.89.
